Results published in patent publication US11572399B2, “Long-acting GIP peptide analogues” (University of Copenhagen, priority 2017, dated 2023).
Peptide text beside a SMILES is read from it. * marks the point of attachment. C16 diacid = O=C(O)CCCCCCCCCCCCCCC(=O)*

Target: T1, human GIP receptor (Homo sapiens, UniProt P48546)
T1 construct: host or cells: COS-7, transient transfection (calcium phosphate), cDNA in pCMV-Script
T1 sequence (P48546 22-466): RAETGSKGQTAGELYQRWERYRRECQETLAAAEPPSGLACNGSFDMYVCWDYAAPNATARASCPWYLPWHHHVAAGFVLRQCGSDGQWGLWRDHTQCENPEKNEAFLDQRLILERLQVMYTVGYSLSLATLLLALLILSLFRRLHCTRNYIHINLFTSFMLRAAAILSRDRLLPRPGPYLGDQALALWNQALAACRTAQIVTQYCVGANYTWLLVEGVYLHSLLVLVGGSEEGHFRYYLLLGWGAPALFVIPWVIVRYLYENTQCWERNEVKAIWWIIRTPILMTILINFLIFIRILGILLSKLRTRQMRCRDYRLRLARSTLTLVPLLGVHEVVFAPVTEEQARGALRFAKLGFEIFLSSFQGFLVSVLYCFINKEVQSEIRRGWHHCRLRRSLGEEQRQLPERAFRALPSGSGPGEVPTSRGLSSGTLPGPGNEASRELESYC
Experiment: cAMP accumulation assay, agonism (ligand alone)
Type: cell-based
Details: COS-7 cells, Table 1; for Emax: COS-7, intrinsic cAMP activity; for EC50: read-out: cAMP agonism nM (EC50)
Experimental: COS-7 cells were cultured at 10% CO2 and 37° C. in Dulbecco's modified Eagle's medium 1885 supplemented with 10% fetal bovine serum, 2 mM glutamine, 180 units/ml penicillin, and 45 µg/ml streptomycin. Transient transfection of the COS-7 cells for cAMP accumulation and competition binding was performed using the calcium phosphate precipitation method with the addition of chloroquine^46-47.
Transient transfected COS-7 cells expressing the human GIP receptor were seeded in white 96-well plates with a density of 3.5*10^4/well. The day after, the cells were washed twice with Hepes buffered saline (HBS) buffer and incubated with HBS and 1 mM 3-isobutyl-1-methylxanthine (IBMX) for 30 min at 37° C. To test for agonistic properties, ligands were added and incubated for 30 min at 37° C. In order to test for antagonistic properties, the cells were preincubated with the antagonists for 10 min prior to the addition of the agonist and subsequent incubated for 20 additional min. The HitHunter™ cAMP XS assay (DiscoveRx) was carried out according to the manufacturer's instructions.
IC50, EC50, and Ki values were determined by nonlinear regression. These were carried out with the GraphPad Prism 6.0 software (GraphPad, San Diego, Calif., USA) and Microsoft Excel™. Ki values were based on the formula for one class of binding sites in homologous competition binding studies and the Cheng Prussoffs formula, respectively (DeBlasi et al., 1989). To determine the HSA binding potential, the fold change in affinity (as determined by IC50) was calculated as IC50 (plus HSA)/IC50 (minus HSA).

Row | Compound | Emax | EC50 | cAMP agonism Emax (intrinsic cAMP activity)
1 | CC[C@H](C)[C@H](NC(=O)[C@H](CO)NC(=O)[C@H](Cc1ccc(O)cc1)NC(=O)[C@H](CC(=O)O)NC(=O)[C@H](CO)NC(=O)[C@@H](NC(=O)[C@H](Cc1ccccc1)NC(=O)[C@@H](NC(=O)CNC(=O)[C@H](CCC(=O)O)NC(=O)CCCCCCCCCCC(=O)O)[C@@H](C)O)[C@@H](C)CC)C(=O)N[C@@H](C)C(=O)N[C@@H](CCSC)C(=O)N[C@@H](CC(=O)O)C(=O)N[C@@H](CCCCN)C(=O)N[C@H](C(=O)N[C@@H](CCCNC(=N)N)C(=O)N[C@@H](CCC(N)=O)C(=O)N[C@@H](CCC(N)=O)C(=O)N[C@@H](CC(=O)O)C(=O)N[C@@H](Cc1ccccc1)C(=O)N[C@H](C(=O)N[C@@H](CC(N)=O)C(=O)N[C@@H](Cc1c[nH]c2ccccc12)C(=O)N[C@@H](CC(C)C)C(=O)N[C@@H](CC(C)C)C(=O)N[C@@H](C)C(=O)N[C@@H](CCC(N)=O)C(=O)N[C@@H](CCCNC(=N)N)C(N)=O)C(C)C)[C@@H](C)CC [AT149, [hGIP(3-30)NH2[H18R; K30R]-C12diacid/3]] | 50% | 24 nM | 
2 | CC[C@H](C)[C@H](NC(=O)[C@H](CO)NC(=O)[C@H](Cc1ccc(O)cc1)NC(=O)[C@H](CC(=O)O)NC(=O)[C@H](CO)NC(=O)[C@@H](NC(=O)[C@H](Cc1ccccc1)NC(=O)[C@@H](N)CCCCNC(=O)CCCCCCCCCCCCCCC(=O)O)[C@@H](C)CC)C(=O)N[C@@H](C)C(=O)N[C@@H](CCSC)C(=O)N[C@@H](CC(=O)O)C(=O)N[C@@H](CCCCN)C(=O)N[C@H](C(=O)N[C@@H](Cc1c[nH]cn1)C(=O)N[C@@H](CCC(N)=O)C(=O)N[C@@H](CCC(N)=O)C(=O)N[C@@H](CC(=O)O)C(=O)N[C@@H](Cc1ccccc1)C(=O)N[C@H](C(=O)N[C@@H](CC(N)=O)C(=O)N[C@@H](Cc1c[nH]c2ccccc12)C(=O)N[C@@H](CC(C)C)C(=O)N[C@@H](CC(C)C)C(=O)N[C@@H](C)C(=O)N[C@@H](CCC(N)=O)C(=O)N[C@@H](CCCCN)C(N)=O)C(C)C)[C@@H](C)CC [AT293, [hGIP(5-30)NH2[T5KK]-C16diacid/5]] | 0% |  | 
3 | CC[C@H](C)[C@H](NC(=O)[C@H](CO)NC(=O)[C@H](Cc1ccc(O)cc1)NC(=O)[C@H](CC(=O)O)NC(=O)[C@H](CO)NC(=O)[C@@H](NC(=O)[C@H](Cc1ccccc1)NC(=O)[C@@H](NC(=O)CNC(=O)[C@@H](N)CCCCNC(=O)CCCCCCCCCCCCCCC(=O)O)[C@@H](C)O)[C@@H](C)CC)C(=O)N[C@@H](C)C(=O)N[C@@H](CCSC)C(=O)N[C@@H](CC(=O)O)C(=O)N[C@@H](CCCCN)C(=O)N[C@H](C(=O)N[C@@H](Cc1c[nH]cn1)C(=O)N[C@@H](CCC(N)=O)C(=O)N[C@@H](CCC(N)=O)C(=O)N[C@@H](CC(=O)O)C(=O)N[C@@H](Cc1ccccc1)C(=O)N[C@H](C(=O)N[C@@H](CC(N)=O)C(=O)N[C@@H](Cc1c[nH]c2ccccc12)C(=O)N[C@@H](CC(C)C)C(=O)N[C@@H](CC(C)C)C(=O)N[C@@H](C)C(=O)N[C@@H](CCC(N)=O)C(=O)N[C@@H](CCCCN)C(N)=O)C(C)C)[C@@H](C)CC [AT294, [hGIP(3-30)NH2[E3K]-C16diacid/3]] | 74% |  | 
4 | CC[C@H](C)[C@H](NC(=O)[C@H](CO)NC(=O)[C@H](Cc1ccc(O)cc1)NC(=O)[C@H](CC(=O)O)NC(=O)[C@H](CO)NC(=O)[C@@H](NC(=O)[C@H](Cc1ccccc1)NC(=O)[C@@H](NC(=O)[C@H](CCCCNC(=O)CCCCCCCCCCCCCCC(=O)O)NC(=O)[C@@H](N)CCC(=O)O)[C@@H](C)O)[C@@H](C)CC)C(=O)N[C@@H](C)C(=O)N[C@@H](CCSC)C(=O)N[C@@H](CC(=O)O)C(=O)N[C@@H](CCCCN)C(=O)N[C@H](C(=O)N[C@@H](Cc1c[nH]cn1)C(=O)N[C@@H](CCC(N)=O)C(=O)N[C@@H](CCC(N)=O)C(=O)N[C@@H](CC(=O)O)C(=O)N[C@@H](Cc1ccccc1)C(=O)N[C@H](C(=O)N[C@@H](CC(N)=O)C(=O)N[C@@H](Cc1c[nH]c2ccccc12)C(=O)N[C@@H](CC(C)C)C(=O)N[C@@H](CC(C)C)C(=O)N[C@@H](C)C(=O)N[C@@H](CCC(N)=O)C(=O)N[C@@H](CCCCN)C(N)=O)C(C)C)[C@@H](C)CC [AT295, [hGIP(3-30)NH2[G4K]-C16diacid/4]] | 78.6% | 2.6 nM | 
5 | CC[C@H](C)[C@H](NC(=O)[C@H](CO)NC(=O)[C@H](CCCCNC(=O)CCCCCCCCCCCCCCC(=O)O)NC(=O)[C@H](CC(=O)O)NC(=O)[C@H](CO)NC(=O)[C@@H](NC(=O)[C@H](Cc1ccccc1)NC(=O)[C@@H](NC(=O)CNC(=O)[C@@H](N)CCC(=O)O)[C@@H](C)O)[C@@H](C)CC)C(=O)N[C@@H](C)C(=O)N[C@@H](CCSC)C(=O)N[C@@H](CC(=O)O)C(=O)N[C@@H](CCCCN)C(=O)N[C@H](C(=O)N[C@@H](Cc1c[nH]cn1)C(=O)N[C@@H](CCC(N)=O)C(=O)N[C@@H](CCC(N)=O)C(=O)N[C@@H](CC(=O)O)C(=O)N[C@@H](Cc1ccccc1)C(=O)N[C@H](C(=O)N[C@@H](CC(N)=O)C(=O)N[C@@H](Cc1c[nH]c2ccccc12)C(=O)N[C@@H](CC(C)C)C(=O)N[C@@H](CC(C)C)C(=O)N[C@@H](C)C(=O)N[C@@H](CCC(N)=O)C(=O)N[C@@H](CCCCN)C(N)=O)C(C)C)[C@@H](C)CC [AT301, [hGIP(3-30)NH2[Y10K]-C16diacid/10]] (H-EGTFISDK(C16 diacid)SIAMDKIHQQDFVNWLLAQK-NH2; N-terminus assumed) | 8.5% | 12 nM | 
6 | CC[C@H](C)[C@H](NC(=O)[C@H](CCCCNC(=O)CCCCCCCCCCCCCCC(=O)O)NC(=O)[C@H](Cc1ccc(O)cc1)NC(=O)[C@H](CC(=O)O)NC(=O)[C@H](CO)NC(=O)[C@@H](NC(=O)[C@H](Cc1ccccc1)NC(=O)[C@@H](NC(=O)CNC(=O)[C@@H](N)CCC(=O)O)[C@@H](C)O)[C@@H](C)CC)C(=O)N[C@@H](C)C(=O)N[C@@H](CCSC)C(=O)N[C@@H](CC(=O)O)C(=O)N[C@@H](CCCCN)C(=O)N[C@H](C(=O)N[C@@H](Cc1c[nH]cn1)C(=O)N[C@@H](CCC(N)=O)C(=O)N[C@@H](CCC(N)=O)C(=O)N[C@@H](CC(=O)O)C(=O)N[C@@H](Cc1ccccc1)C(=O)N[C@H](C(=O)N[C@@H](CC(N)=O)C(=O)N[C@@H](Cc1c[nH]c2ccccc12)C(=O)N[C@@H](CC(C)C)C(=O)N[C@@H](CC(C)C)C(=O)N[C@@H](C)C(=O)N[C@@H](CCC(N)=O)C(=O)N[C@@H](CCCCN)C(N)=O)C(C)C)[C@@H](C)CC [AT302, [hGIP(3-30)NH2[S11K]-C16diacid/11]] (H-EGTFISDYK(C16 diacid)IAMDKIHQQDFVNWLLAQK-NH2; N-terminus assumed) |  |  | no ag.
7 | CC[C@H](C)[C@H](NC(=O)[C@H](CCCCN)NC(=O)[C@H](CC(=O)O)NC(=O)[C@H](CCSC)NC(=O)[C@H](C)NC(=O)[C@H](CCCCNC(=O)CCCCCCCCCCCCCCC(=O)O)NC(=O)[C@H](CO)NC(=O)[C@H](Cc1ccc(O)cc1)NC(=O)[C@H](CC(=O)O)NC(=O)[C@H](CO)NC(=O)[C@@H](NC(=O)[C@H](Cc1ccccc1)NC(=O)[C@@H](NC(=O)CNC(=O)[C@@H](N)CCC(=O)O)[C@@H](C)O)[C@@H](C)CC)C(=O)N[C@@H](Cc1c[nH]cn1)C(=O)N[C@@H](CCC(N)=O)C(=O)N[C@@H](CCC(N)=O)C(=O)N[C@@H](CC(=O)O)C(=O)N[C@@H](Cc1ccccc1)C(=O)N[C@H](C(=O)N[C@@H](CC(N)=O)C(=O)N[C@@H](Cc1c[nH]c2ccccc12)C(=O)N[C@@H](CC(C)C)C(=O)N[C@@H](CC(C)C)C(=O)N[C@@H](C)C(=O)N[C@@H](CCC(N)=O)C(=O)N[C@@H](CCCCN)C(N)=O)C(C)C [AT303, [hGIP(3-30)NH2[I12K]-C16diacid/12]] (H-EGTFISDYSK(C16 diacid)AMDKIHQQDFVNWLLAQK-NH2; N-terminus assumed) | 24.2% | 28 nM | 
